{"source": "patent US20170209472A1", "about": "“PREVENTION OR TREATMENT OF FOOD ALLERGY IN INFANTS AND TODDLERS” (N.V. Nutricia, priority 2014, published 2017)", "key": {"[1]": {"system": "IL-33", "assay": "systemic IL-33 measured by ELISA in mice serum", "assay_type": "in vivo", "settings": "DON gavage; data not shown"}, "[2]": {"system": "Caco-2 cells", "assay": "IL-33 in DON-stimulated Caco-2 cells", "assay_type": "cell-based", "settings": "data not shown"}, "[3]": {"system": "IL-33 mRNA", "settings": "distal small intestine, 6 h after oral DON gavage 25 mg/kg, vs control mice"}, "[4]": {"system": "IL-33", "settings": "distal small intestine after DON gavage, vs control mice"}, "[5]": {"system": "whey protein allergy response", "settings": "C3H/HeOuJ mice sensitized with low or high dose DON with or without whey; FIG. 2"}, "[6]": {"settings": "water and polar solvents such as methanol and acetonitrile; cited from earlier work"}}}
{"smiles": "CC1=C[C@H]2O[C@@H]3[C@H](O)C[C@](C)([C@@]2(CO)[C@H](O)C1=O)[C@]31CO1", "note": "[DON, (3α, 7α)-3,7,15-trihydroxy-12,13-epoxytrichothec-9-en-8-one]", "values": [{"measurement": "systemic IL-33 in serum", "setting": "[1]", "value": "neither affected"}, {"measurement": "IL-33 levels in the supernatant", "setting": "[2]", "value": "did not induce increased"}, {"measurement": "IL-33 mRNA expression levels", "setting": "[2]", "value": "did not induce increased"}, {"measurement": "IL-33 mRNA expression", "setting": "[3]", "value": "increase"}, {"measurement": "IL-33 production (immunohistochemistry)", "setting": "[4]", "value": "obviously increased"}, {"measurement": "whey protein allergy response (ear swelling)", "setting": "[5]", "value": "significantly increases"}, {"measurement": "solubility", "setting": "[6]", "value": "soluble"}]}
